Measured values from publication PMC11111408, “Concurrent inhibition of oncogenic and wild-type RAS-GTP for cancer therapy” (Nature, 2024).
Like-named read-outs stand apart in the source and are kept apart here.

Test system: panel of 183 cancer cell lines
Assay: Cell panel of 183 cancer cell lines, viability (CTG) at Crown Bioscience
Type: cell-based
Conditions: Homo sapiens
From the text: The panel consisted of cell lines with any substitution at position 12 of KRAS, NRAS or HRAS (KRAS(G12X), NRAS(G12X), HRAS(G12X)); substitutions in KRAS, NRAS or HRAS at any position other than 12, 13 and 61 (KRAS(other/VUS), NRAS(other/VUS), HRAS(other/VUS)); other oncogenic mutations in the RAS pathway (ABL1, ALK, ARAF, BRAF, CBL, EGFR, ERBB2, ERBB3, ERBB4, ERRFI1, FGFR1, FGFR2, FGFR3, FGFR4, FLT3, HRAS, IGF1R, JAK2, KIT, MAP2K1, MAP2K2, MAPK1, MET, NF1, NRAS, NTRK1, NTRK2, NTRK3, PDGFRA, PTPN11, RAC1, RAF1, RASA1, RET, RIT1, ROS1 and SOS1); and no oncogenic mutations in the RAS pathway. […] Cells were incubated for 120 h, and cell viability was determined using the CellTiter-Glo Luminescent Cell Viability Assay (CTG) (Promega, G7572) according to the manufacturer’s instructions.

Compound: CCn1c(-c2cc(N3CCN(C4CC4)CC3)cnc2[C@H](C)OC)c2c3cc(ccc31)-c1csc(n1)C[C@H](NC(=O)[C@H]1[C@@H]3COC[C@@H]31)C(=O)N1CCC[C@H](N1)C(=O)OCC(C)(C)C2 [RMC-7977]
- EC50 (786-0, read-out: RMC-7977 EC50 (M), 786O, RAS pathway WT, Kidney): > 1e-06 M
- EC50 (A 172, read-out: RMC-7977 EC50 (M), A172, RAS pathway WT, Brain&Nerves): 1.19e-07 M
- EC50 (A549, read-out: RMC-7977 EC50 (M), A549, KRAS G12S, Lung): 5.13e-09 M
- EC50 (A-375, read-out: RMC-7977 EC50 (M), A375, BRAF V600E, Skin): > 1e-06 M
- EC50 (A-427, read-out: RMC-7977 EC50 (M), A427, KRAS G12D, Lung): 4.79e-09 M
- EC50 (AN3-CA, read-out: RMC-7977 EC50 (M), AN3CA, RAS pathway WT, Uterus): 2.87e-08 M
- EC50 (ASPC1, read-out: RMC-7977 EC50 (M), ASPC1, KRAS G12D, Pancreas): 2.63e-09 M
- EC50 (AU565, read-out: RMC-7977 EC50 (M), AU565, RAS pathway WT, Breast): > 1e-06 M
- EC50 (BRAF^MUT Other cell lines, read-out: median EC50): 7.54e-08 M
- EC50 (BRAF^V600E cell lines, read-out: median EC50): > 1e-06 M
- EC50 (BXPC-3, read-out: RMC-7977 EC50 (M), BXPC3, BRAF mut other, Pancreas): 2.97e-08 M
- EC50 (CAL-51, read-out: RMC-7977 EC50 (M), CAL51, NRAS Y137H, Breast): 2.88e-08 M
- EC50 (CAL-62, read-out: RMC-7977 EC50 (M), CAL62, KRAS G12R, HN/Thyroid): 2.29e-09 M
- EC50 (CAPAN-1, read-out: G12X (62), RMC-7977 EC50 (CTG), CAPAN1, KRAS G12X): 1.41e-09 M
- EC50 (CAPAN-1, read-out: RMC-7977 EC50 (M), CAPAN1, KRAS G12V, Pancreas): 1.41e-09 M
- EC50 (CFPAC-1, read-out: G12X (62), RMC-7977 EC50 (CTG), CFPAC1, KRAS G12X): 2.95e-09 M
- EC50 (CFPAC-1, read-out: RMC-7977 EC50 (M), CFPAC1, KRAS G12V, Pancreas): 2.95e-09 M
- EC50 (CHL-1, read-out: RMC-7977 EC50 (M), CHL1, RAS pathway WT, Skin): 2.61e-08 M
- EC50 (CHP-212, read-out: RMC-7977 EC50 (M), CHP212, NRAS Q61K, Brain&Nerves): 1.58e-09 M
- EC50 (COLO 201, read-out: RMC-7977 EC50 (M), COLO201, BRAF V600E, Large intestine/Colorectum): > 1e-06 M
- EC50 (COR-L23, read-out: G12X (62), RMC-7977 EC50 (CTG), CORL23, KRAS G12X): 2.75e-09 M
- EC50 (COR-L23, read-out: RMC-7977 EC50 (M), CORL23, KRAS G12V, Lung): 2.75e-09 M
- EC50 (Calu-1, read-out: RMC-7977 EC50 (M), CALU1, KRAS G12C, Lung): 6.61e-10 M
- EC50 (Calu-6, read-out: RMC-7977 EC50 (M), CALU6, KRAS Q61K, Lung): 1.86e-09 M
- EC50 (Capan-2, read-out: G12X (62), RMC-7977 EC50 (CTG), CAPAN2, KRAS G12X): 3.31e-10 M
- EC50 (Capan-2, read-out: RMC-7977 EC50 (M), CAPAN2, KRAS G12V, Pancreas): 3.31e-10 M
- EC50 (CoC1, read-out: RMC-7977 EC50 (M), COC1, KRAS G12D, Ovary): 1.58e-09 M
- EC50 (DLD-1, read-out: RMC-7977 EC50 (M), DLD1, KRAS G13D, Large intestine/Colorectum): 4.57e-08 M
- EC50 (DMS-53, read-out: RMC-7977 EC50 (M), DMS53, RAS pathway WT, Lung): 7.15e-08 M
- EC50 (DMS-114, read-out: RMC-7977 EC50 (M), DMS114, RAS pathway WT, Lung): 7.09e-07 M
- EC50 (DU-145, read-out: RMC-7977 EC50 (M), DU145, RAS pathway WT, Prostate): 1.72e-08 M
- EC50 (DV-90, read-out: RMC-7977 EC50 (M), DV90, KRAS G13D, Lung): 2.95e-08 M
- EC50 (EBC-1, read-out: RMC-7977 EC50 (M), EBC1, MET amp, Lung): 1.13e-09 M
- EC50 (FTC-133, read-out: RMC-7977 EC50 (M), FTC133, NF1 LOF, HN/Thyroid): > 1e-06 M
- EC50 (HCC44, read-out: RMC-7977 EC50 (M), HCC44, KRAS G12C, Lung): 5.25e-09 M
- EC50 (HCC70, read-out: RMC-7977 EC50 (M), HCC70, RAS pathway WT, Breast): > 1e-06 M
- EC50 (HCC78, read-out: RMC-7977 EC50 (M), HCC78, ROS1 fusion, Lung): 7.49e-09 M
- EC50 (HCC827, HCC827, RTKMUT/fusion, read-out: EC50): 3.03e-09 M
- EC50 (HCC827, read-out: RMC-7977 EC50 (M), HCC827, EGFR mut, Lung): 3.03e-09 M
- EC50 (HCC1187, read-out: RMC-7977 EC50 (M), HCC1187, RAS pathway WT, Breast): 2.7e-07 M
- EC50 (HCC1428, read-out: RMC-7977 EC50 (M), HCC1428, RAS pathway WT, Breast): > 1e-06 M
- EC50 (HCC1500, read-out: RMC-7977 EC50 (M), HCC1500, RAS pathway WT, Breast): 5.01e-08 M
- EC50 (HCC2279, RTKMUT/fusion, read-out: EC50): 4.52e-09 M
- EC50 (HCC2935, read-out: RMC-7977 EC50 (M), HCC2935, EGFR mut, Lung): 2.39e-09 M
- EC50 (HCC4006, HCC4006, RTKMUT/fusion, read-out: EC50): 2.39e-09 M
- EC50 (HCC4006, read-out: RMC-7977 EC50 (M), HCC4006, EGFR mut, Lung): 2.39e-09 M
- EC50 (HCT-8, read-out: RMC-7977 EC50 (M), HCT8, KRAS G13D, Large intestine/Colorectum): 3.02e-08 M
- EC50 (HCT-15, read-out: RMC-7977 EC50 (M), HCT15, KRAS G13D, Large intestine/Colorectum): 2.75e-07 M
- EC50 (HCT-116, read-out: RMC-7977 EC50 (M), HCT116, KRAS G13D, Large intestine/Colorectum): 6.61e-09 M
- EC50 (HEC-1-A, read-out: RMC-7977 EC50 (M), HEC1A, KRAS G12D, Uterus): 1.74e-09 M
- EC50 (HGC-27, read-out: RMC-7977 EC50 (M), HGC27, NF1 LOF, Stomach): > 1e-06 M
- EC50 (HPAC, read-out: RMC-7977 EC50 (M), HPAC, KRAS G12D, Pancreas): 1.1e-08 M
- EC50 (HPAF-II, read-out: RMC-7977 EC50 (M), HPAFII, KRAS G12D, Pancreas): 3.24e-09 M
- EC50 (HT-1080, read-out: RMC-7977 EC50 (M), HT1080, NRAS Q61K, Soft tissue): 2.34e-09 M
- EC50 (HepG2, read-out: RMC-7977 EC50 (M), HEPG2, NRAS Q61L, Liver): 6.76e-09 M
- EC50 (Hs766T, read-out: RMC-7977 EC50 (M), HS766T, KRAS Q61H, Pancreas): > 1e-06 M
- EC50 (Hs-578T, read-out: RMC-7977 EC50 (M), HS578T, HRAS G12D, Breast): 1.45e-08 M
- EC50 (HuCCT-1, read-out: RMC-7977 EC50 (M), HUCCT1, KRAS G12D, Liver/Bile duct): 5.13e-09 M
- EC50 (HuP-T4, read-out: RMC-7977 EC50 (M), HUPT4, KRAS G12V, Pancreas): 2.51e-09 M
- EC50 (JHH7, read-out: RMC-7977 EC50 (M), JHH7, RAS pathway WT, Liver): 8.08e-08 M
